Literature values, collected in patent publication US20100242127A1, “METHODS TO IDENTIFY MODULATORS OF B-RAF PROTEIN KINASE AND THEIR USE FOR THE TREATMENT OF ANXIETY AND DEPRESSION” (HELMHOLTZ ZENTRUM MUNCHEN, priority 2007, published 2010).

System: Mek
Conditions: mouse brain

PD184161
behavioural phenotype after acute blockade of Mek: depressive-like phenotype
effect on behavioural actions of antidepressants (acute): counteract the behavioural actions of antidepressants
